Common to all, as to experiment: relative viability (nuclei count vs DMSO), 5 days (fraction); higher = more cells survive
Compound in the assay “XMD14-99 + Alpelisib”: CN1CCN(CC1)C2=CC(=C(C=C2)NC3=NC(=C(S3)C(=O)C4=C(C=CC=C4Cl)Cl)N)OC [XMD14-99] + Cc1nc(NC(=O)N2CCC[C@H]2C(N)=O)sc1-c1ccnc(C(C)(C)C(F)(F)F)c1 [Alpelisib] (partner 2 µM)
The gist of the method: (§1)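 Lung cancer cell lines, seeded in 1536-well plates, were treated the following day by pin tool with a single drug or with five library-drug doses (not always all listed) in √10 steps on top of a fixed anchor-drug dose. Cells were fixed and nuclei stained in one step after 5 days, and nuclei were counted. Relative viability is the nuclei count for treated wells divided by that for vehicle wells, reported as medians of duplicate plates.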

Compound in the assay “XMD14-99 + Decitabine”: CN1CCN(CC1)C2=CC(=C(C=C2)NC3=NC(=C(S3)C(=O)C4=C(C=CC=C4Cl)Cl)N)OC [XMD14-99] + Nc1ncn([C@H]2C[C@H](O)[C@@H](CO)O2)c(=O)n1 [Decitabine] (partner 2 µM)
The gist of the method:
as §1

Compound in the assay “XMD14-99 + Vorinostat”: CN1CCN(CC1)C2=CC(=C(C=C2)NC3=NC(=C(S3)C(=O)C4=C(C=CC=C4Cl)Cl)N)OC [XMD14-99] + O=C(CCCCCCC(=O)Nc1ccccc1)NO [Vorinostat] (partner 1 µM)
The gist of the method:
as §1

Compound in the assay “AZD1208 + Lapatinib”: N[C@@H]1CCCN(c2c(/C=C3\SC(=O)NC3=O)cccc2-c2ccccc2)C1 [AZD1208] + CS(=O)(=O)CCNCc1ccc(-c2ccc3ncnc(Nc4ccc(OCc5cccc(F)c5)c(Cl)c4)c3c2)o1 [Lapatinib] (partner 2 µM)
The gist of the method:
as §1

Turning to UMC-11, the relative viability in the assay with XMD14-99 + Alpelisib (first compound 0.08 µM) is 0.939; in the assay with XMD14-99 + Alpelisib (first compound 0.8 µM), 1.02; with XMD14-99 + Alpelisib (first compound 2.53 µM), 1.01; with XMD14-99 + Alpelisib (first compound 8 µM), 0.735; with XMD14-99 + Decitabine (first compound 0.08 µM), 0.573; in the assay with XMD14-99 + Decitabine (first compound 0.8 µM) it was 0.667. In addition, the relative viability was 0.626 with XMD14-99 + Decitabine (first compound 2.53 µM); 0.589 in the assay with XMD14-99 + Decitabine (first compound 8 µM); 0.422 with XMD14-99 + Vorinostat (first compound 0.08 µM); 0.352 with XMD14-99 + Vorinostat (first compound 0.8 µM); 0.416 with XMD14-99 + Vorinostat (first compound 2.53 µM); 0.346 with XMD14-99 + Vorinostat (first compound 8 µM). The relative viability came out at 0.819 with AZD1208 + Lapatinib (first compound 0.08 µM); 0.739 with AZD1208 + Lapatinib (first compound 0.253 µM); 0.679 with AZD1208 + Lapatinib (first compound 0.8 µM); 0.487 with AZD1208 + Lapatinib (first compound 2.53 µM); 0.466 with AZD1208 + Lapatinib (first compound 8 µM).
